Assay results taken from patent publication EP0641797A1, “Cephem derivatives and antimicrobial agents containing the same” (KATAYAMA SEIYAKUSYO CO. Ltd., priority 1993, dated 1995).
≈ marks a conversion by molar mass, not a printed value.

Key:
Test in all cases: MIC on standard strains, standard method of Japan Society of Chemotherapy
Type in all cases: cell-based
A. calcoaceticos T59 = details: read-out: MIC
Outline: (§1)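 Antibacterial activity is measured by the Japan Society of Chemotherapy method. Flomoxef and cefotiam act as control agents.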

A. faecalis ATCC 3750 = details: Alcaligenes faecalis, ATCC3750, A. faecalis ATCC 3750; read-out: MIC
Outline: as §1

B. subtilis ATCC 6633 = details: Bacillus subtilis, ATCC6633, B. subtilis ATCC 6633; read-out: MIC
Outline: as §1

C. freundii ATCC 8090 = details: Citrobacter freundii, ATCC8090, C. freundii ATCC 8090; read-out: MIC
Outline: as §1

E. cloacae ATCC 13407 = details: Enterobacter cloacae, ATCC13407, E. cloacae ATCC 13407; read-out: MIC
Outline: as §1

E. cloacae Nek39 = details: Enterobacter cloacae, NEK39, E. cloacae Nek39; read-out: MIC
Outline: as §1

E. coli CSH2(RE45) = details: Escherichia coli
Outline: (§2)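 Read-out: lowest concentration inhibiting growth, per Japanese chemotherapy society guidelines. Strain set comprised 25 standard organisms, including two MRSA isolates. Controls included CTM and FMOX.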

E. coli CSH2(RK1) = details: Escherichia coli
Outline: as §2

E. coli NHIJ JC-2 = details: Escherichia coli, NHIJJC2
Outline: as §1

K. pneuminiae IFO 3317 = test system: K. pneuminiae IFO 3317
Outline: as §1

K. pneuminiae No. 42 = test system: K. pneuminiae No. 42
Outline: as §1

M. luteus ATCC 9341 = details: Micrococcus luteus, ATCC9341
Outline: as §1

M. morganii IFO 3848 = details: Morganella morganii, IFO3848
Outline: as §1

P. aeruginosa AKR17 = details: Pseudomonas aeruginosa
Outline: as §1

P. aeruginosa NCTC 10490 = details: Pseudomonas aeruginosa, NCTC10490, P. aeruginosa NCTC 10490; read-out: MIC
Outline: as §1

P. cepacia = details: Burkholderia cepacia, read-out: MIC
Outline: as §1

P. mirabilis IFO 3849 = details: Proteus mirabilis, IFO3849, P. mirabilis IFO 3849; read-out: MIC
Outline: as §1

P. vulugaris OX-19 = test system: P. vulugaris OX-19
Outline: as §1

S. aureus 167 = details: Staphylococcus aureus; S. aureus 167 (MRSA)
Outline: as §1

S. aureus 195 = details: Staphylococcus aureus; S. aureus 195 (MRSA)
Outline: as §1

S. aureus 209p JC-1 = details: Staphylococcus aureus, 209P, read-out: MIC
Outline: as §1

S. aureus Smith = details: Staphylococcus aureus, read-out: MIC
Outline: as §1

S. epidemidis IAM 1296 = test system: S. epidemidis IAM 1296
Outline: as §1

S. marcescens IAM 1184 = details: Serratia marcescens, IAM1184, S. marcescens IAM 1184; read-out: MIC
Outline: as §1

S. marcescens No. 16-2 = details: Serratia marcescens, NO.162
Outline: as §1

Nc1nc(/C(=N/O)C(=O)N[C@@H]2C(=O)N3C(C(=O)[O-])=C(C[n+]4cccc(-c5ncno5)c4)CS[C@H]23)ns1 [Ex. 5, 7β-[2-(5-amino-1,2,4-thiadiazol-3-yl)-2-syn-hydroxyiminoacetamido]-3-[3-(1,2,4-oxadiazol-5-yl)pyridinio]methyl-3-cephem-4-carboxylate]
MIC (A. calcoaceticos T59): 12.5 µg/mL (≈ 23.6 µM) | MIC (A. faecalis ATCC 3750): 12.5 µg/mL (≈ 23.6 µM) | MIC (B. subtilis ATCC 6633): 0.78 µg/mL (≈ 1.47 µM) | MIC (C. freundii ATCC 8090): 6.25 µg/mL (≈ 11.8 µM) | MIC (E. cloacae ATCC 13407): 25 µg/mL (≈ 47.2 µM) | MIC (E. cloacae Nek39): 100 µg/mL (≈ 189 µM) | MIC (E. coli CSH2(RE45)): 6.25 µg/mL (≈ 11.8 µM) | MIC (E. coli CSH2(RK1)): 12.5 µg/mL (≈ 23.6 µM) | MIC (E. coli NHIJ JC-2): 6.25 µg/mL (≈ 11.8 µM) | MIC (K. pneuminiae IFO 3317): 3.13 µg/mL (≈ 5.91 µM) | MIC (K. pneuminiae No. 42): 6.25 µg/mL (≈ 11.8 µM) | MIC (M. luteus ATCC 9341): 0.39 µg/mL (≈ 0.737 µM) | MIC (M. morganii IFO 3848): 3.13 µg/mL (≈ 5.91 µM) | MIC (P. aeruginosa AKR17): > 100 µg/mL | MIC (P. aeruginosa NCTC 10490): 3.13 µg/mL (≈ 5.91 µM) | MIC (P. cepacia): > 100 µg/mL | MIC (P. mirabilis IFO 3849): 3.13 µg/mL (≈ 5.91 µM) | MIC (P. vulugaris OX-19): 6.25 µg/mL (≈ 11.8 µM) | MIC (S. aureus 167): 50 µg/mL (≈ 94.4 µM) | MIC (S. aureus 195): 50 µg/mL (≈ 94.4 µM) | MIC (S. aureus 209p JC-1): 1.56 µg/mL (≈ 2.95 µM) | MIC (S. aureus Smith): 3.13 µg/mL (≈ 5.91 µM) | MIC (S. epidemidis IAM 1296): 0.78 µg/mL (≈ 1.47 µM) | MIC (S. marcescens IAM 1184): 6.25 µg/mL (≈ 11.8 µM) | MIC (S. marcescens No. 16-2): > 100 µg/mL

Nc1nc(/C(=N/O)C(=O)N[C@@H]2C(=O)N3C(C(=O)[O-])=C(C[n+]4ccc(-c5nnco5)cc4)CS[C@H]23)cs1 [Ex. 18, 7β-[2-(2-aminothiazol-4-yl)-2-syn-hydroxyiminoacetsmido]-3-[4-(1,3,4-oxadiazol-2-yl)pyridinio]methyl-3-cephem-4-carboxylate]
MIC (A. calcoaceticos T59): 25 µg/mL (≈ 47.3 µM) | MIC (A. faecalis ATCC 3750): 1.56 µg/mL (≈ 2.95 µM) | MIC (B. subtilis ATCC 6633): 0.78 µg/mL (≈ 1.48 µM) | MIC (C. freundii ATCC 8090): 0.39 µg/mL (≈ 0.738 µM) | MIC (E. cloacae ATCC 13407): 50 µg/mL (≈ 94.6 µM) | MIC (E. cloacae Nek39): > 100 µg/mL | MIC (E. coli CSH2(RE45)): 0.39 µg/mL (≈ 0.738 µM) | MIC (E. coli CSH2(RK1)): 6.25 µg/mL (≈ 11.8 µM) | MIC (E. coli NHIJ JC-2): 0.2 µg/mL (≈ 0.378 µM) | MIC (K. pneuminiae IFO 3317): 0.2 µg/mL (≈ 0.378 µM) | MIC (K. pneuminiae No. 42): 1.56 µg/mL (≈ 2.95 µM) | MIC (M. luteus ATCC 9341): 0.2 µg/mL (≈ 0.378 µM) | MIC (M. morganii IFO 3848): 0.05 µg/mL (≈ 0.0946 µM) | MIC (P. aeruginosa AKR17): > 100 µg/mL | MIC (P. aeruginosa NCTC 10490): 12.5 µg/mL (≈ 23.7 µM) | MIC (P. cepacia): > 100 µg/mL | MIC (P. mirabilis IFO 3849): 0.2 µg/mL (≈ 0.378 µM) | MIC (P. vulugaris OX-19): 0.2 µg/mL (≈ 0.378 µM) | MIC (S. aureus 167): 25 µg/mL (≈ 47.3 µM) | MIC (S. aureus 195): 12.5 µg/mL (≈ 23.7 µM) | MIC (S. aureus 209p JC-1): 0.78 µg/mL (≈ 1.48 µM) | MIC (S. aureus Smith): 1.56 µg/mL (≈ 2.95 µM) | MIC (S. epidemidis IAM 1296): 0.39 µg/mL (≈ 0.738 µM) | MIC (S. marcescens IAM 1184): 0.39 µg/mL (≈ 0.738 µM) | MIC (S. marcescens No. 16-2): > 100 µg/mL
